“Also recorded” adds a separate entry of the source.
Assays:
B16F10 melanoma cells = assay: B16F10 melanoma cell viability after irradiation in vitro; format: cell-based, mouse; conditions: 7N3 1 hour or morpholino 48 hours before 10 Gy, versus untreated cells
Method: (§1) FIG. 19. CD47 suppression enhances re-growth delay in irradiated syngeneic B16 melanoma and squamous cell carcinoma tumors but increases radioresistance of B16 cells in vitro. C57BL/6 mice were injected with 1×10^6 B16 mouse melanoma cells into their right hindlimbs. Five days later, the mice were randomized into 4 groups (12 mice in each group) where they either received injections of CD47 morpholino (10 μM) in sterile PBS, PBS, or no injection. The two groups receiving injections were then subjected to radiation (10 Gy) to the effected hindlimb 48 hours later. The other two groups served as controls and consisted of tumor alone or tumor subjected to only the morpholino. Tumors were followed post-radiation for 30 days, measuring their volume every 6 days (FIG. 19A). […] Cell (mitochondrial) viability was measured 48 hours post radiation using the MTT assay.
Cell Viability Assay. […] Cell viability was determined using the CellTiter 96 Aqueous One Solution cell proliferation assay (Promega, Madison, Wis.) as per the manufacturer's instructions and absorbance at 490 nm was determined using an MR580 Microelisa AutoReader (Dynatech, Alexandria, Va.). […]
Irradiation of cells. […] The dose rate at 50 cm from the x-ray source was 242 cGy/minute, as determined by multiple thermo luminescent dosimeter readings.

SCC VII = SCC VII squamous cell carcinoma tumor growth after irradiation in C3H mice; format: in vivo, mouse; conditions: IP morpholino 48 hours before irradiation
Method: as §1, with “19A). Results are presented as the mean±SD of 12 mice in each treatment group and are representative of 3 independent studies.” for “19A).”
FIG. 20. […] Tumor growth was assessed as above. […]
In other experiments, C3H mice were injected in the right hindlimb with either 1.5×10^5 SCC VII cells, and tumors were allowed to establish for 1 week. […] The mice were observed and tumor size determined two to three times a week by the same individual until lesion size necessitated animal euthanasia.

B16 melanoma tumors = assay: Histology, TUNEL and CD68 staining of irradiated B16 tumors; format: in vivo, mouse; conditions: morpholino 48 hours before 10 Gy, 24 hours post-radiation
Method: FIG. 21. Increased fibrotic response, viable immune reaction, and macrophage infiltration is seen in tumors with suppressed CD47 expression. C57BL/6 mice were injected with 1×10^6 B16 mouse melanoma cells into their hind limbs. Treatment consisted of two groups where the hind limbs were treated with either 150 μl of PBS or 150 μl of CD47 morpholino (10 μM) 48 hours prior to radiation (10 Gy). The control group consisted of just tumor without radiation. 24 hours post-radiation the mice were sacrificed, and their hindlimbs were prepared in paraffin embedded tissue sections for analysis. The top panels represent hind limbs and tumors in each group stained by standard H&E protocol (FIG. 21A). […] Positive (apoptotic) cells are indicated by brown nuclear staining (FIG. 21B). […] Dark staining within the tumor indicates macrophage infiltration. Images were acquired using either a 4× or 10× objective.
Immunohistochemical Evaluation: Staining for the macrophage marker CD68 was done as previously described (Manso et al., Cancer Res 68:7090-7099, 2008) utilizing a rat anti-mouse CD68 antibody (AbD Serotec, Raleigh, N.C.). H&E staining of tissue hind limbs was prepared by American HistoLabs, Gaithersburg, Md.
Tissue Apoptosis: The ApopTag in situ detection kit (Chemicon, Millipore, Mass.) was used as described in Example 1. Additionally, animals were injected with 1×10^6 B16 melanoma cells and treated with either CD47 morpholino or sterile PBS as previously described. Mice were sacrificed 24 hours post irradiation (10 Gy), and hind limbs were embedded in paraffin blocks. Tissue sections incorporating the entire hind limb were examined for apoptosis employing 3′-hydroxy DNA strand breaks enzymatically labeled with digoxygenin nucleotide via TdT. Positive and negative control slides provided with the kit are used in each assay to ensure consistency.

CGTCACAGGCAGGACCCACTGCCCA (all phosphorodiamidate morpholino (PMO)) [CD47 morpholino, CD47 targeting morpholino oligonucleotide]
cell viability after 10 Gy (B16F10 melanoma cells): mild radioprotective effect | tumor growth delay, intraperitoneal versus local administration (SCC VII): as effective as local delivery; also recorded: equivalent delay in tumor growth | H&E of irradiated tumors (fibrosis, necrosis) (B16 melanoma tumors): greater fibrosis and necrotic response | apoptotic cells associated with the tumor (TUNEL) (B16 melanoma tumors): minimal numbers of apoptotic cells | macrophage marker CD68 staining of tumors (B16 melanoma tumors): positive staining in the periphery
